From the supplement of paper PMC10721915

Assays:
Assay in all cases: relative cell growth vs untreated control (GI, NCI-DTP normalisation with time-zero) (fraction of control growth); higher = more growth / less inhibition
Settings in all cases: treatment time: 120 h
BXPC3 = system: BXPC3
Description: (§1)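 Cancer cell lines in 96-well plates were treated 48 h after seeding with M4076 (ATM inhibitor) and berzosertib (ATR inhibitor), alone or mixed, in 4-fold dilutions for 120 h. Protein was read by sulforhodamine B staining, background-subtracted and normalised NCI-DTP style to untreated control growth. Rows with one concentration equal to 0 are monotherapy.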

SAOS2 = system: SAOS2
Description: as §1

A549 = system: A549
Description: as §1

MIAPACA2 = system: MIAPACA2
Description: as §1

U87MG = system: U87MG
Description: as §1

U2OS = system: U2OS
Description: as §1

HL60 = system: HL60
Description: as §1

MDAMB435 = system: MDAMB435
Description: as §1

NCIH460 = system: NCIH460
Description: as §1

DU145 = system: DU145
Description: as §1

COc1cc2ncc3c(c2cc1-c1cn(C)nc1C)n(-c1c(F)cncc1OC)c(=O)n3C [M4076] + CNCc1ccc(-c2cc(-c3nc(-c4ccc(S(=O)(=O)C(C)C)cc4)cnc3N)on2)cc1 [berzosertib]
relative cell growth
Settings | A549 | BXPC3 | DU145 | HL60 | MDAMB435 | MIAPACA2 | NCIH460 | SAOS2 | U2OS | U87MG
concentration of first compound 0.0195 µM, concentration of partner 0 M | 1.18 | 1.17 | 1.09 | 1.14 | 1.09 | 1.08 | 1.14 | 1.16 | 1.1 | 1.1
concentration of first compound 0.0195 µM, concentration of partner 0.2 µM | 0.64 | 0.548 | 1.05 | 1.06 | 1.01 | 0.643 | 0.607 | 0.735 | 0.876 | 0.891
concentration of first compound 0.0781 µM, concentration of partner 0 M | 1.22 | 1.25 | 1.12 | 1.13 | 1.09 | 1.17 | 1.16 | 1.14 | 1.09 | 1.12
concentration of first compound 0.0781 µM, concentration of partner 0.2 µM | 0.574 | 0.643 | 1.09 | 1.12 | 1.05 | 0.542 | 0.678 | 0.657 | 0.865 | 0.839
concentration of first compound 0.313 µM, concentration of partner 0 M | 1.16 | 1.17 | 1.11 | 1.03 | 1.04 | 1.03 | 1.14 | 1.05 | 0.972 | 1.09
concentration of first compound 0.313 µM, concentration of partner 0.2 µM | 0.267 | 0.481 | 0.774 | 0.788 | 0.622 | 0.269 | 0.354 | 0.319 | 0.504 | 0.682
concentration of first compound 1 µM, concentration of partner 0 M | 0.924 | 0.952 | 0.98 | 0.862 | 0.988 | 1.08 | 0.972 | 0.782 | 0.916 | 0.966
concentration of first compound 1 µM, concentration of partner 0.0195 µM | 0.89 | 0.987 | 0.893 | 0.88 | 1.01 | 0.891 | 0.969 | 0.871 | 0.798 | 0.944
concentration of first compound 1 µM, concentration of partner 0.0781 µM | 0.431 | 0.78 | 0.862 | 0.707 | 0.701 | 0.439 | 0.79 | 0.482 | 0.611 | 0.82
concentration of first compound 1 µM, concentration of partner 0.313 µM | 0.0877 | 0.015 | 0.133 | 0.0883 | 0.14 | 0.061 | 0.0691 | 0.119 | 0.191 | 0.343
concentration of first compound 1 µM, concentration of partner 1.25 µM | 0.00284 | -0.096 | -0.0604 | 0.00814 | -0.00922 | 0.0345 | -0.00904 | -0.0926 | -0.111 | 0.0996
concentration of first compound 1 µM, concentration of partner 5 µM | 0.00285 | -0.0967 | -0.0855 | -0.0212 | -0.0254 | -0.0126 | -0.0222 | -0.1 | -0.131 | 0.134
concentration of first compound 1.25 µM, concentration of partner 0 M | 1.09 | 1.08 | 1.05 | 0.958 | 1.03 | 1.18 | 1.11 | 0.871 | 0.935 | 1.01
concentration of first compound 1.25 µM, concentration of partner 0.2 µM | 0.153 | 0.321 | 0.496 | 0.344 | 0.411 | 0.126 | 0.199 | 0.146 | 0.312 | 0.505
concentration of first compound 5 µM, concentration of partner 0 M | 0.955 | 0.894 | 0.872 | 0.746 | 0.92 | 1.09 | 1.06 | 0.652 | 0.852 | 0.853
concentration of first compound 5 µM, concentration of partner 0.2 µM | 0.11 | 0.228 | 0.307 | 0.207 | 0.185 | 0.157 | 0.203 | 0.113 | 0.229 | 0.381

CNCc1ccc(-c2cc(-c3nc(-c4ccc(S(=O)(=O)C(C)C)cc4)cnc3N)on2)cc1 [berzosertib] + COc1cc2ncc3c(c2cc1-c1cn(C)nc1C)n(-c1c(F)cncc1OC)c(=O)n3C [M4076]
relative cell growth, concentration of partner 0 M
Settings | A549 | BXPC3 | DU145 | HL60 | MDAMB435 | MIAPACA2 | NCIH460 | SAOS2 | U2OS | U87MG
concentration of first compound 0.0195 µM | 1.22 | 1.18 | 1.08 | 1.14 | 1.07 | 1.06 | 1.12 | 1.16 | 1.07 | 1.09
concentration of first compound 0.0781 µM | 0.999 | 1.14 | 1.13 | 1.1 | 1.06 | 0.974 | 1.09 | 1.11 | 0.977 | 1.07
concentration of first compound 0.2 µM | 0.464 | 0.588 | 1.03 | 0.809 | 0.893 | 0.661 | 0.607 | 0.645 | 0.906 | 0.8
concentration of first compound 0.313 µM | 0.294 | 0.34 | 0.825 | 0.53 | 0.656 | 0.235 | 0.357 | 0.559 | 0.9 | 0.677
concentration of first compound 1.25 µM | 0.0316 | -0.112 | -0.0103 | 0.0485 | -0.0138 | 0.0129 | 0.0867 | 0.0446 | 0.0428 | 0.185
concentration of first compound 5 µM | -0.00795 | -0.0824 | -0.0587 | -0.0133 | -0.0273 | -0.0366 | 0.0406 | -0.116 | -0.0411 | 0.195
